{"source": "patent US20200345746A1", "about": "“Oxazine Derivative for Use in the Prevention of Alzheimer's Disease in at Risk Patents” (Novartis AG, priority 2016, published 2020)", "key": {"[1]": {"assay": "Body weight, chronic 8-week dosing in wild-type mice", "type": "in vivo, mouse", "conditions": "C57BL/6 mice, 8 weeks chronic treatment", "method": "Compound 1 and NB-360 were formulated as a suspension. […] Vehicle: […] in 0.5% methylcellulose in water.\nBody weight was taken 3 times per week (Monday, Wednesday, Friday). Subjective scoring of any hair colour changes was performed once weekly (Wednesday). Scores (% of body with grey fur): 0: No change; 1: Spots; 2: >30%; 3: >50%; 4: >75%; 5: 100%. Animals were photo-documented when fur color change was observed. Final fur color scoring was performed blinded and by a person not involved in the study."}, "[2]": {"assay": "Drug-drug interaction study: PK of Compound 1 with the strong CYP3A4 inhibitor itraconazole", "type": "in vivo, human", "conditions": "healthy volunteers, with itraconazole 200 mg q.d. vs Compound 1 alone"}, "[3]": {"system": "Aβ42", "assay": "Formic acid soluble Aβ42 in APP23 mouse forebrain", "type": "in vivo", "method": "(§1) Frozen mouse forebrains were weighed and homogenized in 9 volumes (w/v) of ice-cold TBS-Complete (20 mM Tris-HCl pH 7.4, 137 mM NaCl, 1× Complete [Protease Inhibitor Cocktail Tablets: 1 836 145, Roche Diagnostics GmbH, Penzberg, Germany]) by sonication (90% duty cycle, output control 5, 40-55 pulses, [Sonifier 450, Branson]). After homogenization several 50 μl aliquots were prepared for analysis and were stored at −80° C.\n(§2) Fifty microliter of forebrain homogenate was mixed with 116.6 μl 100% formic acid, resulting in a final formic acid concentration of 70%. Samples were stored on ice and vortexed every 5 minutes. For neutralization, 50 μl of the mixture were pipetted into a new tube, and 950 μl of 1 M Tris base, containing 1× Complete Protease inhibitor, was added. Tubes were stored at room temperature overnight and then centrifuged for 15 minutes at 14000 rpm in an Eppendorf Microzentrifuge at 4° C. From the top layer, 100 μl are removed and mixed with 100 μl of 3% Blocker A solution (part of the MesoScale assay kit). This sample was either directly applied to the assay plate (dilution 1:1332) or further diluted in 1% Blocker A solution."}, "[4]": {"conditions": "in vivo; for AUCblood (AUC0-24 h): po", "description": "Blood samples were used to analyze whole-blood compound levels and were obtained either from tail-vein during the in-life part into EDTA tubes (CB300, Sarstedt, Germany) or from trunk blood at the day of necropsy into EDTA Eppendorf tubes (Milian S A, CatNoTOM-14, Fisher Scientific, Wohlen, Switzerland), or into serum tubes (CB300Z, Sarstedt, Nümbrecht, Germany).\nBrain was removed immediately after decapitation, rinsed with saline and sectioned sagitally down the midline. The left half of the cerebellum was used to analyze compound level and was placed into a glass tube (Chromacol, 125×5-SV T051, Welwyn Garden City, United Kingdom), weighed and frozen in dry-ice, the left half of the forebrain (without olfactory bulb) was used for Aβ analysis, and was frozen on a metal plate on dry ice and placed into protein Lo-bind tube (003 0108.116, Eppendorf, Hamburg, Germany).\nVentral and dorsal skin were taken to analyze compound level, weighed and frozen on dry-ice.\nBrain samples were mixed with 2 volumes of KH2PO4 buffer and homogenized using the Covaris® device. Skin samples were mixed with approx. 6-fold volumes of methanol/water and homogenized using a Precellys tube. Either 30 μL of blood, brain or skin homogenate were spiked with a structurally related internal standard and subsequently mixed with an at least 6-fold excess volume acetonitrile for protein precipitation. The supernatant was injected directly into the LC/MS/MS system for analysis.\nFor tissue exposure, only data at 4 and 24 h were available."}, "[5]": {"system": "Aβ40", "assay": "Aβ40 in APP23 mouse CSF", "type": "in vivo", "conditions": "APP23 mice; for CSF Aβ40 Mean ± SEM: 6 months", "method": "Mouse CSF samples (3 μl) was diluted with 57 μL 1% Blocker A (MSD) and 25 μl were applied to the assay plate.\nCSF was collected from all mice at necropsy. Samples from the baseline group were stored for approximately 6 months, and analyzed together with the rest of the samples at the end of the study. […] The reason for the high baseline values is currently not known. It is hypothesized that this is an effect of long term storage, when dissociation of oligomeric forms of Aβ may lead to higher monomeric concentrations. CSF Aβ, more than Triton TX-100 solubilized Aβ from brain extracts, represents the steady-state concentration of soluble amyloid-β that directly responds to changes in Aβ generation."}, "[6]": {"system": "sAPPα", "assay": "Triton TX-100 soluble sAPPα in APP23 mouse brain", "type": "in vivo", "conditions": "APP23 mice", "method": "as §1\nBrain homogenates were extracted with 1% Triton X-100 in buffer and the resulting supernatant was considered to represent soluble forms of APP metabolites. In addition to Aβ40 and 42, we determined the N-terminal APP fragments sAPPα (direct cleavage product of α-secretase) and sAPPβ (Swe) (direct product of BACE1 cleavage). […] Since no change in the APP expression and Aβ generation is known to happen during this age, it is assumed that the increased values in the vehicle group (18-20 mo old) arise from “leakage” out of the Aβ deposits (which increase several fold, see below)."}, "[7]": {"system": "Aβ40", "assay": "Formic acid soluble Aβ40 in APP23 mouse forebrain", "type": "in vivo", "method": "as §1, §2"}, "[8]": {"system": "Aβ40", "assay": "Acute PK/PD in APOE4-TR mice: Aβ40 in brain", "type": "in vivo, mouse", "conditions": "for Average Aβ40 brain ± SD: n = 6; for Aβ40 reduction vs vehicle, range over the doses: APOE4-TR mice, 3, 10 and 30 μmol/kg", "method": "Compound 1 was formulated as a suspension. Vehicle or compound was given by oral administration in a volume of 10 ml/kg once. Vehicle: 0.1% Tween80 in 0.5% Methylcellulose in water.\nas §1\nEndogenous Aβ40 in mice was determined with the Meso Scale Discovery (MSD) 96-well MULTI-ARRAY human/rodent (4G8) Aβ40 Ultrasensitive Assay (#K110FTE-3, Meso Scale Discovery, Gaithersburg, USA). The assay was performed according to the manufacturer's instructions except for the calibration curve and the sample preparations. TritonX-100 (TX-100) soluble Aβ40 was extracted from forebrain with 1% TX-100 using a 50 μl aliquot of each 1:10 forebrain homogenate, mixed with 50 μl 2% TX-100 in TBS complete (20 mM Tris-HCl pH 7.4, 137 mM NaCl, 1× Complete [Protease Inhibitor Cocktail Tablets: 1 836 145, Roche Diagnostics GmbH, Penzberg Germany]) to reach a final concentration of 1% TX-100 and a 1:20 forebrain dilution. The samples were incubated for 15 min on ice and vortexed every 5 min. The samples were ultra-centrifuged (100000×g, 4° C., 15 min) and 50 μl of the clear supernatants were transferred to fresh tubes. For the Aβ40 assay the supernatants were further diluted 1:5 in 3% Blocker A solution (from kit) to a final forebrain dilution of 1:100 and applied to the plate.\nThe calibration curve was prepared in a corresponding dilution of 1% Blocker A solution spiked with synthetic Aβ1-40 peptide (1.56-100 pg/ml) except for non-transgenic mouse brain samples: In this case, the calibration curve was prepared in a correspondingly diluted APP knockout mouse forebrain spiked with synthetic Aβ1-40 peptide (1.56-100 pg/ml). For all samples and standards 25 μl were applied per well. For each determination duplicate wells were done. The mean values from the duplicate wells were used for calculations."}, "[9]": {"conditions": "APOE4-TR mice, 30 μmol/kg acute"}}, "note": "Where two headings read alike, the source gives them in different places."}
{"compound": "C[C@@]1(c2nc(NC(=O)c3ncc(C(F)(F)F)cc3Cl)ccc2F)CO[C@@](C)(C(F)(F)F)C(N)=N1", "note": "[Compound 1, N-(6-((3R,6R)-5-amino-3,6-dimethyl-6-(trifluoromethyl)-3,6-dihydro-2H-1,4-oxazin-3-yl)-5-fluoropyridin-2-yl)-3-chloro-5-(trifluoromethyl)picolinamide]", "values": [{"measurement": "body weight difference compared to vehicle", "setting": "[1]", "value": "No overall significant body weight difference"}, {"measurement": "increase of mean AUC of Compound 1", "setting": "[2]", "value": "2-3 fold"}, {"measurement": "increase of mean Cmax of Compound 1", "setting": "[2]", "value": 25, "unit": "%"}, {"measurement": "Formic acid soluble Aβ42 change vs vehicle", "setting": "[3]; APP23, 0.03 g/kg vs vehicle", "value": "−16.3", "unit": "%"}, {"measurement": "Formic acid soluble Aβ42 change vs vehicle", "setting": "[3]; APP23, 0.3 g/kg vs vehicle", "value": "−86.2", "unit": "%"}, {"measurement": "AUCbrain (AUC0-24 h)", "setting": "[4]; C57BL/6, mouse, 8 umol/kg", "value": 11.61, "unit": "µmol·h/kg"}, {"measurement": "AUCbrain (AUC0-24 h)", "setting": "[4]; C57BL/6, mouse, 50 umol/kg", "value": 88.93, "unit": "µmol·h/kg"}, {"measurement": "reduction of blood exposure, last day vs beginning of experiment", "setting": "[4]; C57BL/6, mouse, 8 weeks", "value": "around 35%"}, {"measurement": "AUCblood (AUC0-24 h)", "setting": "[4]; C57BL/6, mouse, 8 umol/kg", "value": 3.49, "unit": "µM·h"}, {"measurement": "AUCblood (AUC0-24 h)", "setting": "[4]; C57BL/6, mouse, 50 umol/kg", "value": 18.53, "unit": "µM·h"}, {"measurement": "rel. AUCdorsal skin", "setting": "[4]; mouse", "value": 12.6}, {"measurement": "rel. AUCventral skin", "setting": "[4]; mouse", "value": 16.8}, {"measurement": "AUCdorsal skin (AUC0-24 h)", "setting": "[4]; mouse, 8 umol/kg", "value": 54.3, "unit": "µmol·h/kg"}, {"measurement": "AUCventral skin (AUC0-24 h)", "setting": "[4]; mouse, 8 umol/kg", "value": 78.29, "unit": "µmol·h/kg"}, {"measurement": "AUCdorsal skin (AUC0-24 h)", "setting": "[4]; mouse, 50 umol/kg", "value": 271.6, "unit": "µmol·h/kg"}, {"measurement": "AUCventral skin (AUC0-24 h)", "setting": "[4]; mouse, 50 umol/kg", "value": 308.7, "unit": "µmol·h/kg"}, {"measurement": "CSF Aβ40 Change vs vehicle", "setting": "[5]; 0.03 g/kg food", "value": "−8.6", "unit": "%"}, {"measurement": "CSF Aβ40 Mean ± SEM", "setting": "[5]; 0.03 g/kg food", "value": "31.2 ± 2.11", "unit": "ng/mL"}, {"measurement": "CSF Aβ40 Change vs vehicle", "setting": "[5]; 0.3 g/kg food", "value": "−54.3", "unit": "%"}, {"measurement": "CSF Aβ40 Mean ± SEM", "setting": "[5]; 0.3 g/kg food", "value": "15.6 ± 1.8", "unit": "ng/mL"}, {"measurement": "sAPPα change vs vehicle", "setting": "[6]; 0.03 g/kg vs vehicle", "value": "+44%"}, {"measurement": "increase in sAPPα", "setting": "[6]; 0.3 g/kg dose", "value": 3, "unit": "fold"}, {"measurement": "sAPPα change vs vehicle", "setting": "[6]; 0.3 g/kg vs vehicle", "value": "+279.8%"}, {"measurement": "Formic acid soluble Aβ40 change vs vehicle", "setting": "[7]; APP23, 0.03 g/kg vs vehicle", "value": "−18.1", "unit": "%"}, {"measurement": "Formic acid soluble Aβ40 change vs vehicle", "setting": "[7]; APP23, 0.3 g/kg vs vehicle", "value": "−79.2", "unit": "%"}, {"measurement": "Mini AUEC (brain Aβ40)", "setting": "[8]; APOE4-TR mice, 3 μmol/kg acute", "value": 32, "unit": "%"}, {"measurement": "Average Aβ40 brain ± SD", "setting": "[8]; APOE4-TR mice, 3 μmol/kg acute p.o., 4 h", "value": "0.114 ± 0.024", "unit": "pmol/g"}, {"measurement": "Average Aβ40 brain ± SD", "setting": "[8]; APOE4-TR mice, 3 μmol/kg acute p.o., 24 h", "value": "0.160 ± 0.033", "unit": "pmol/g"}, {"measurement": "% reduction vs vehicle (brain Aβ40)", "setting": "[8]; APOE4-TR mice, 3 μmol/kg acute, 4 h", "value": 43, "unit": "%"}, {"measurement": "% reduction vs vehicle (brain Aβ40)", "setting": "[8]; APOE4-TR mice, 3 μmol/kg acute, 24 h", "value": 20, "unit": "%"}, {"measurement": "Mini AUEC (brain Aβ40)", "setting": "[8]; APOE4-TR mice, 10 μmol/kg acute", "value": 47, "unit": "%"}, {"measurement": "Average Aβ40 brain ± SD", "setting": "[8]; APOE4-TR mice, 10 μmol/kg acute p.o., 4 h", "value": "0.074 ± 0.014", "unit": "pmol/g"}, {"measurement": "Average Aβ40 brain ± SD", "setting": "[8]; APOE4-TR mice, 10 μmol/kg acute p.o., 24 h", "value": "0.139 ± 0.041", "unit": "pmol/g"}, {"measurement": "% reduction vs vehicle (brain Aβ40)", "setting": "[8]; APOE4-TR mice, 10 μmol/kg acute, 4 h", "value": 63, "unit": "%"}, {"measurement": "% reduction vs vehicle (brain Aβ40)", "setting": "[8]; APOE4-TR mice, 10 μmol/kg acute, 24 h", "value": 31, "unit": "%"}, {"measurement": "Mini AUEC (brain Aβ40)", "setting": "[8]; [9]", "value": 72, "unit": "%"}, {"measurement": "maximal effect on Aβ reduction in the brain", "setting": "[8]; [9]", "value": "> 70", "unit": "%"}, {"measurement": "Average Aβ40 brain ± SD", "setting": "[8]; APOE4-TR mice, 30 μmol/kg acute p.o., 4 h", "value": "0.046 ± 0.006", "unit": "pmol/g"}, {"measurement": "Average Aβ40 brain ± SD", "setting": "[8]; APOE4-TR mice, 30 μmol/kg acute p.o., 24 h", "value": "0.068 ± 0.021", "unit": "pmol/g"}, {"measurement": "% reduction vs vehicle (brain Aβ40)", "setting": "[8]; APOE4-TR mice, 30 μmol/kg acute, 4 h", "value": 77, "unit": "%"}, {"measurement": "% reduction vs vehicle (brain Aβ40)", "setting": "[8]; APOE4-TR mice, 30 μmol/kg acute, 24 h", "value": 66, "unit": "%"}, {"measurement": "Aβ40 reduction vs vehicle, range over the doses", "setting": "[8]; 4h", "value": "43-77%"}, {"measurement": "Aβ40 reduction vs vehicle, range over the doses", "setting": "[8]; 24h", "value": "20-66%"}]}
